B1: TcTS2-His6: taxadiene synthase from Taxus chinensis var. mairei, amino acid sequence SEQ ID NO: 1 (protein)
chain: MSSSPTKLATENANAVAESNLIPRLSANYHGDLWHHGVIQTLQTPYQESSSYQERAEELIVKIKDMFKAVEEGAISPSAYDTAWVARVPDGSEKPRFPQALNWLLHNQLQDGSWGLESHFMLSDRLLSTLNSVISLLVWKTGQQQVEQGTLFITENLKLLEGEDELPPDFEIIFPALLQKAKALGMSLPDHDLPFIKSLSVAREARLASYTDNNIPASMLNALEGLEEVIDWDKIMRFQMPCLYSIDLLERLSLVDNIEHLGIGRHFKQEIKVALDYVYRYWSERGIGLGRDSLIPDLNTTALGLRTLRAHGYNVSSEVLNNFKDENGRFFSSLGQTHVELRSMVNLLRASDLAFPDEPLMDDAKIFAEAYLRDALATRISTNTKLFKEIDYAVEYPWHMSIPRLEARSYIDVYDDDYTWQNKTLYRMSNLSNAYCLELAKLDFNIVQSLHQEELKLLTRWWKESGMADINFTRHRVAEVYFSSATFEPEYSSTRIAFTKIGCLQVLFDDMADIFATLDELRDFTEGVKRWDTSLIHKLPDCMQTCFRVWFNLMEEVNNDVSNVQGRDMLNHIRKPWELYFNCYVQEREWLDAGYIPTLEEYLKTYSISVGLGPCTLQPILLMGDIVKDDVVEKVHYPSNLFELVSLSWRLTNDTKTYQAEKARGQQASGIACYMKDNPGSTEEDAIKYICGVVDRALKEACFEYFKPADDVPMSCKSFIFNLRLCVQIFYKFIDGYGIANEEIKDYIRKVYIEPIQV
modifications: C-terminal His6 tag; Amino acid sequence of Taxadiene Synthase TcTS2

Experiments:
TcTS2 gene = assay: Expression pattern of TcTS2 gene under MeJA stress (qPCR); format: cell-based, Taxus chinensis var. mairei; conditions: 100 μM MeJA, 4 h, 2^−ΔΔCt, reference TcACTIN1
Method: (§1) Taxus chinensis var. mairei cell line 211 were divided into two groups: the experimental group (MeJA+) was soaked with 100 μM methyl jasmonate; the control group (MeJA−) was soaked with 0.05% ethanol solution. The experiments of the two groups were carried out at the same time, and the samples were collected after 0 h, 2 h, 3 h and 4 h respectively, for the analysis of the expression pattern of TcTSs gene and the content of baccatin III and paclitaxel, with three biological replicates.
(§2) EASYspin Plant Total RNA Extraction Kit (Aidlab, Beijing) was used to extract and collect the total RNA of the samples with different treatment times. 1 μg of total RNA of different samples was respectively taken for the synthesis of the first-strand cDNA, using it as the template for real-time fluorescence quantitative PCR. Kit Hifair® III 1st Strand cDNA Synthesis (YEASEN, China) and qPCR fluorescent dye kit Hieff® qPCR SYBR® Green Master Mix (Low Rox Plus) (commercial reagents, purchased from YEASEN, China) were used for the first-strand cDNA synthesis. qPCR experiments were performed on the QuantStudio™ 3 system with 2 technical replicates and 3 biological replicates. Actin1 (TcACTIN1) gene of Taxus chinensis var. mairei was used as an internal reference gene, and the relative expression of TcTSs genes was calculated by using the 2^−ΔΔCt method.

[1] = tested on: Taxus chinensis var. mairei cell line 211; assay: Content changes of baccatin III and paclitaxel for different treatment times of MeJA (LC-MS); format: cell-based; conditions: 100 μM MeJA
Method: as §1
The metabolites were extracted by the modified Wolfender method. The specific steps include: weighing 100 mg of lyophilized cell powder to place it in a 2 ml centrifuge tube, adding 1.5 ml of extraction buffer (methanol:water=80:20, v/v) and vortexing to suspend it, containing 500 ng/ml dexamethasone as the internal standard, after ultrasonic extraction for 30 min, centrifuging at 14,000 g for 15 min; the supernatant was centrifuged and dried in a vacuum concentrator (LABCONCO), and finally the sample was resuspended in 200 μL methanol solvent (80:20, v/v) for LCMS analysis. Samples were analyzed by LC-MS by using an ACQUITY UPLC I-Class/AB SCIEX (Waters) instrument.
The separation column was Waters (2.1×50 mm; ACQUITY UPLC™ Waters XselectHSS T3); the injection volume was 10 μL, and the flow rate was 0.2 mL/min.
The mobile phase composition: A was 0.1% formic acid methanol; B was 0.1% formic acid water.
The LC separation procedure was as follows: equilibrating with 40% A for 2 min, followed by gradient elution for 10 min to 100% B, maintaining for 2 min, and then returning to 40% A equilibration for 1 min. ESI ion source, positive ion mode. Data acquisition and processing were performed on AB SCIEXAnalyst 1.6.3 software (Applied Biosystems).

TcTS1 gene = assay: Expression pattern of TcTS1 gene under MeJA stress (qPCR); format: cell-based, Taxus chinensis var. mairei; conditions: 100 μM MeJA, 0-4 h, 2^−ΔΔCt, reference TcACTIN1
Method: as §1, §2

[2] = Kinetic constants of TcTSs-His6 ([1-3H]-GGPP, liquid scintillation counting); format: biochemical, Taxus chinensis var. mairei
Method: Kinetic parameter detection: standard enzymatic reaction with a total volume of 100 μL, containing enzyme reaction buffer (25 mM, pH 8.5, 10% glycerol, 5 mM DTT, 5 mM ascorbate, 5 mM sodium metabisulfite and 1 mM MgCl2), 34 μg (TcTS1-His6) or 18 μg (TcTS2-His6) recombinant protein, and […] concentrations of GGPP (0.2 μM, 0.5 μM, 1 μM, 2.5 μM, 5 μM, 10 μM, 25 μM, 50 μM) mixed with […] substrate (American Radiolabeled Chemicals, Inc, 30 Ci/mM).
Labeled [1-3H]-GGPP was diluted 400-fold with unlabeled GGPP (Sigma, 1 mg/mL). The reaction mixture was reacted at 32° C. for 30 min, then quenching with 100 μL of stop buffer (containing IM EDTA and 4M NaOH) for 10 min; the reaction mixture was extracted with 800 μL of n-hexane (vortexing for 2 min, centrifuging at 12,000 rpm for 10 min); 400 μL of n-hexane extract was taken to add into 2 mL of liquid scintillation cocktail to mix well. The total radioactivity of the reaction products was determined by using a liquid scintillation counter (Tri-Carb 2910TR, Perkin Elmer). Kinetic constants were calculated by nonlinear regression fitting of Michaelis-Menten equation through Origin 8.6 software.

[3] = In vitro activity of TcTSs-His6 (GC-MS of enzymatic reaction product); format: biochemical, Taxus chinensis var. mairei; conditions: 100 μg purified protein, 100 μM GGPP, 32° C., 2 h
Method: The in vitro enzymatic reaction system was 500 μL, containing 100 μg purified protein, 100 μM GGPP (Sigma-Aldrich) and enzyme reaction buffer (25 mM, pH 8.5, 10% glycerol, 5 mM DTT, 5 mM ascorbate, 5 mM sodium metabisulfite and 1 mM MgCl2), the reaction mixture was covered with 500 μL of pentane (Macklin, GC-MS grade) and reacted in a 32° C. water bath for 2 h, vortexing for 2 min, centrifuging at 5000 rpm for 10 min; the pentane layer was taken out, putting into 2 mL of the sample, concentrating at low temperature by using a nitrogen blower; the product was analyzed by gas chromatography mass spectrometry (GC-MS) instrument.
The control group was the reaction product of purified recombinant protein TcTSs-His6 after being boiled at 100° C. for 10 min. The GC-MS instrument was Agilent 7890B/7000C (Agilent Technologies, Waldbronn, USA), mass spectrometry detector parameters: 70 eV, helium flow rate 1.2 mL/min, chromatographic column Agilent HP-5 MS (5% phenylmethyl silica, 30 m×250 μm inner diameter, 0.25 μm film thickness), the injection volume is 1-5 μL; the temperature program of the column oven is as follows: 45° C. for 1 min, then 10° C./min gradient increase to 250° C., and remaining at 250° C. for 5 min. […]

[4] = substrate GGPP, 32° C., 30 min, Michaelis-Menten fit

Molecule	induction fold of TcTS2 expression relative to 0 h (TcTS2 gene)	increased fold of baccatin III as compared to the control group ([1]; 2 h) [times]	increased fold of paclitaxel as compared to the control group ([1]; 2 h) [times]	increase fold of baccatin III ([1]; 4 h) [times]	increase fold of paclitaxel ([1]; 4 h) [times]	expression of TcTS1 under MeJA stress (TcTS1 gene)	catalytic efficiency relative to TcTS1-His6 (Kcat value) ([2]; from Kcat values) [times]	Ka [2, 4] [pM/µg/min]	Kcat [2, 4] [s⁻¹]	main products taxa-4 (5), 11 (12)-diene (accounting for) [3] [%]	secondary products taxa-4 (20), 11 (12)-diene (accounting for) [3] [%]
CC/C=C\CC1C(=O)CCC1CC(=O)OC (centres unmarked) [MeJA, methyl jasmonate]	7	1.48	9.53	7.01	12.91	up-regulated	–	–	–	–	–
B1	–	–	–	–	–	–	3	8.6 ± 1.5	0.00901	94	4
